This note sets out measurements from US7504400B2, “MTP inhibiting aryl piperydines or piperazines substituted with 5-membered heterocycles” (Janssen Pharmaceutica N.V., priority 2004, dated 2009).

For this assay, the system named is Secretion of ApoB. The assay can be described thus: Quantification of the secretion of ApoB in HepG2 cells. Format: cell-based. The note with it: Homo sapiens, HepG2, 24 h, 24 hours of incubation with test compound, immunoprecipitation of apoB from medium, read-out: pIC50 value (=-log IC50 value), secretion of ApoB (converted). The method in brief:
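At 70% confluency, HepG2 cells in MEM with 10% FCS received compound or DMSO carrier (0.4% final) for 24 h. Secreted apoB in cleared medium immunoprecipitated with sheep anti-apoB then rabbit anti-sheep antibody (24 h each, 8° C); pellet radioactivity counted by liquid scintillation; IC50 expressed as pIC50.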
For the molecule `CC(C)n1ncn(-c2ccc(C3CCN(C(C(=O)Nc4ccccc4)c4ccccc4)CC3)cc2)c1=O` (centres unmarked) [Compound 19], the IC50 is 31.6 to 316 nM.
As to `CNC(=O)C(c1ccccc1)N1CCN(c2ccc(-n3cnn(C(C)C)c3=O)cc2)CC1` (centres unmarked) [Compound 136], the concentration for half-maximal inhibition (IC50) was 316 to 3160 nM.
With `CCC(C)n1ncn(-c2ccc(N3CCN(C(C(=O)NCc4ccccc4)c4ccccc4)CC3)cc2)c1=O` (centres unmarked) [Compound 22], the IC50 was 31.6 to 316 nM.
In the case of `Cc1ccc(NC(=O)C(c2ccccc2)N2CCN(c3ccc(-n4cnn(C(C)C)c4=O)cc3)CC2)c(C)c1` (centres unmarked) [Compound 59], the IC50 was 31.6 to 316 nM.
For the molecule `CCOC(=O)C(c1ccccc1)N1CCC(c2ccc(-n3ccn([C@H](C)C4CCCCC4)c3=O)cc2)CC1` (some centres unmarked) [Compound 296], the IC50 is 31.6 to 316 nM.
Consider `CC(C)n1ncn(-c2ccc(N3CCN(C(C(=O)NC4CC4)c4ccccc4)CC3)cc2)c1=O` (centres unmarked) [Compound 81], for which the IC50 was 316 to 3160 nM.
Regarding `C=CCn1ncn(-c2ccc(N3CCC(C(C(=O)Nc4ccccc4)c4ccccc4)CC3)cc2)c1=O` (centres unmarked) [Compound 52], the IC50 was 316 to 3160 nM.
On to `CCNC(=O)C(CCN1CCN(c2ccc(-n3cnn(C(C)C)c3=O)cc2)CC1)c1ccccc1` (centres unmarked) [Compound 161], for which the IC50 was 316 to 3160 nM.
As to `CCCCCn1ncn(-c2ccc(N3CCC(C(C(=O)NCCC)c4ccccc4)CC3)cc2)c1=O` (centres unmarked) [Compound 151], the IC50 was 31.6 to 316 nM.
Regarding `CCC(C)n1ncn(-c2ccc(N3CCN(C(C(=O)NCC(F)(F)F)c4ccccc4)CC3)cc2)c1=O` (centres unmarked) [Compound 178], the IC50 was 31.6 to 316 nM.
With `CCNC(=O)C(CN1CCN(c2ccc(-n3cnn(C(C)C)c3=O)cc2)CC1)c1ccccc1` (centres unmarked) [Compound 101] the figure was 31.6 to 316 nM; with `CCOC(=O)C(c1ccccc1)N1CCC(c2ccc(-n3ccn([C@@H](C)c4cccc(OC)c4)c3=O)cc2)CC1` (some centres unmarked) [Compound 238], 316 to 3160 nM; with `COC(=O)C(c1ccccc1)N1CCC(c2ccc(-n3cnn(C(C)C)c3=O)cc2)CC1` (centres unmarked) [Compound 171], 31.6 to 316 nM.
As for `COC(=O)C(c1ccc(C)cc1)N1CCC(c2ccc(-n3cnn(C(C)C)c3=O)cc2)CC1` (centres unmarked) [Compound 324], the IC50 is 316 to 3160 nM.
As for `CCOC(=O)C(c1ccccc1)N1CCC(c2ccc(-n3ccn([C@H](COC)c4ccccc4)c3=O)cc2)CC1` (some centres unmarked) [Compound 239], the IC50 was 316 to 3160 nM.
With `CC(C)n1ncn(-c2ccc(N3CCN(C(C(=O)Nc4ccc(F)cc4F)c4ccccc4)CC3)cc2)c1=O` (centres unmarked) [Compound 62], the IC50 was 31.6 to 316 nM.
`CC(C)n1cnn(-c2ccc(N3CCN(C(C(=O)Nc4ccccc4)c4ccccc4)CC3)cc2)c1=O` (centres unmarked) [Compound 5]: the IC50 is 316 to 3160 nM.
As to `CCOC(=O)[C@H](c1ccccc1)N1CCN(c2ccc(-n3ccn([C@H](C)c4ccc(F)cc4)c3=O)cc2)CC1` (relative stereo) [Compound 268], the half-maximal inhibitory concentration (IC50) is 31.6 to 316 nM.
For the molecule `CCOC(=O)C(c1ccccc1)N1CCC(c2ccc(-n3ccn(C(C)c4ccccc4)c3=O)cc2)CC1` (centres unmarked) [Compound 221], the concentration for half-maximal inhibition (IC50) was 31.6 to 316 nM.
`CCCCCNC(=O)C(c1ccccc1)N1CCN(c2ccc(-n3cnn(C(C)CC)c3=O)cc2)CC1` (centres unmarked) [Compound 96]: the IC50 is 31.6 to 316 nM.
As for `CCOC(=O)[C@H](c1ccccc1)N1CCN(c2ccc(-n3ccn([C@H](C)c4ccc(C(F)(F)F)cc4)c3=O)cc2)CC1` (relative stereo) [Compound 270], the IC50 was 31.6 to 316 nM.
In the case of `CC(C)n1ncn(-c2ccc(N3CCN(C(C(=O)Nc4ccccc4)c4ccccc4)CC3)cc2)c1=O` (centres unmarked) [Compound 8], the IC50 was 31.6 to 316 nM.
As for `CC(C)n1ncn(-c2ccc(N3CCN(C(C(=O)Nc4ccc5c(c4)NCC5)c4ccccc4)CC3)cc2)c1=O` (centres unmarked) [Compound 201], the IC50 is 31.6 to 316 nM.
As to `CC(C)NC(=O)C(c1ccccc1)N1CCN(c2ccc(-n3cnn(C(C)C)c3=O)cc2)CC1` (centres unmarked) [Compound 7], the IC50 was 31.6 to 316 nM.
Consider `CCOC(=O)[C@H](c1ccccc1)N1CCN(c2ccc(-n3ccn([C@H](C)c4cccc(C(F)(F)F)c4)c3=O)cc2)CC1` (relative stereo) [Compound 269], for which the concentration for half-maximal inhibition (IC50) is 31.6 to 316 nM.
The figure for `CCCCNC(=O)C(c1ccccc1)N1CCN(c2ccc(-n3cnn(C(C)C)c3=O)cn2)CC1` (centres unmarked) [Compound 42] is 316 to 3160 nM; for `Cc1cnc(NC(=O)C(c2ccccc2)N2CCN(c3ccc(-n4cnn(C(C)C)c4=O)cc3)CC2)s1` (centres unmarked) [Compound 125] it is 31.6 to 316 nM; for `CCOC(=O)C(c1ccccc1)C1CCN(c2ccc(-n3ccn([C@H](C)c4ccc(C)cc4)c3=O)cc2)CC1` (some centres unmarked) [Compound 253] it is 31.6 to 316 nM.
On to `CCCn1ncn(-c2ccc(N3CCN(C(C(=O)Nc4ccccc4)c4ccccc4)CC3)cc2)c1=O` (centres unmarked) [Compound 124], for which the IC50 is 31.6 to 316 nM.
Turning to `CCCNC(=O)C(c1ccccc1)N1CCN(c2ccc(-n3cnn(C(C)C)c3=O)cc2)CC1` (centres unmarked) [Compound 164], the IC50 is 31.6 to 316 nM.
Consider `CCCNC(=O)C(c1ccccc1)(c1ccccc1)N1CCN(c2ccc(-n3cnn(C(C)C)c3=O)cc2)CC1` [Compound 134], for which the IC50 was 316 to 3160 nM.
For `CCOC(=O)C(c1ccccc1)C1CCN(c2ccc(-n3ccn(C(C)c4ccccc4)c3=O)cc2)CC1` (centres unmarked) [Compound 222], the IC50 is 31.6 to 316 nM.
Turning to `CCOC(=O)[C@@H](C)NC(=O)CC1CCN(c2ccc(-n3cnn(C(C)c4ccccc4)c3=O)cc2)CC1` (some centres unmarked) [Compound 391], the IC50 is 316 to 3160 nM.
As to `CCOC(=O)C(c1cccs1)N1CCN(c2ccc(-n3cnn(C(C)C)c3=O)cc2)CC1` (centres unmarked) [Compound 13], the concentration for half-maximal inhibition (IC50) was 316 to 3160 nM.
With `CCOC(=O)C(c1ccccc1)N1CCC(c2ccc(-n3ccn([C@@H](C)c4ccc5ccccc5c4)c3=O)cc2)CC1` (some centres unmarked) [Compound 231] the figure was 316 to 3160 nM; with `CCC(C)n1ncn(-c2ccc(N3CCN(C(C(=O)NCCO)c4ccccc4)CC3)cc2)c1=O` (centres unmarked) [Compound 94], 316 to 3160 nM; with `CCOC(=O)[C@@H](Cc1ccccc1)NC(=O)CC1CCN(c2ccc(-n3cnn(C(C)c4ccccc4)c3=O)cc2)CC1` (some centres unmarked) [Compound 396], 316 to 3160 nM.
Take `CCOC(=O)C(c1ccccc1)C1CCN(c2ccc(-n3ccn(C(CC)c4ccccc4)c3=O)cc2)CC1` (centres unmarked) [Compound 263]: the IC50 was 31.6 to 316 nM.
With `CCOC(=O)[C@H](NC(=O)CC1CCN(c2ccc(-n3cnn(C(C)c4ccccc4)c3=O)cc2)CC1)C(C)C` (some centres unmarked) [Compound 393], the IC50 was 31.6 to 316 nM.
For `CCOC(=O)C(c1ccccc1)C1CCN(c2ccc(-n3ccn([C@@H](C)c4cccc(OC)c4)c3=O)cc2)CC1` (some centres unmarked) [Compound 258], the IC50 was 316 to 3160 nM.
For the molecule `Cc1nn(C(C)C)c(=O)n1-c1ccc(N2CCN(C(C(=O)NCc3ccccc3)c3ccccc3)CC2)cc1` (centres unmarked) [Compound 86], the IC50 was 316 to 3160 nM.
For `CCOC(=O)C(c1ccccc1)C1CCN(c2ccc(-n3ccn([C@@H](C)c4ccccc4)c3=O)cc2)CC1` (some centres unmarked) [Compound 248], the IC50 was 316 to 3160 nM.
Turning to `CC(C)n1ncn(-c2ccc(N3CCN(C(C(=O)NCc4ccccn4)c4ccccc4)CC3)cc2)c1=O` (centres unmarked) [Compound 70], the IC50 is 316 to 3160 nM.
On to `COC(=O)C(c1ccc(Cl)cc1)N1CCC(c2ccc(-n3cnn(C(C)C)c3=O)cc2)CC1` (centres unmarked) [Compound 321], for which the IC50 was 316 to 3160 nM.
With `COC(=O)C(c1cccc(Cl)c1)N1CCN(c2ccc(-n3cnn(C(C)C)c3=O)cc2)CC1` (centres unmarked) [Compound 326] the figure was 316 to 3160 nM; with `CCCNC(=O)C(c1ccccc1)C1CCN(c2ccc(-n3cnn(CCC)c3=O)cc2)CC1` (centres unmarked) [Compound 149], 316 to 3160 nM.
With `CCOC(=O)[C@H](c1ccccc1)N1CCN(c2ccc(-n3ccn(C(C)c4ccc(F)c(F)c4)c3=O)cc2)CC1` (stereo in doubt) [Compound 341] the figure was 31.6 to 316 nM; with `CC(C)n1ncn(-c2ccc(C3CCN(C(C(=O)NCc4ccccc4)c4ccccc4)CC3)cc2)c1=O` (centres unmarked) [Compound 20], 31.6 to 316 nM.
For the molecule `CCOC(=O)C(c1ccccc1)C1CCN(c2ccc(-n3ccn([C@H](C)c4cccc(OC)c4)c3=O)cc2)CC1` (some centres unmarked) [Compound 257], the IC50 is 316 to 3160 nM.
For the molecule `COC(=O)c1cccc(CNC(=O)C(c2ccccc2)N2CCN(c3ccc(-n4ccn(C(C)c5ccccc5)c4=O)cc3)CC2)c1` (centres unmarked) [Compound 291], the IC50 is 316 to 3160 nM.
For the molecule `CC(C)n1ncn(-c2ccc(C3CCN(C(C(=O)NCC(F)(F)F)c4ccccc4)CC3)cc2)c1=O` (centres unmarked) [Compound 143], the IC50 is 31.6 to 316 nM.
Consider `COC(=O)C(c1ccc(Cl)cc1)N1CCN(c2ccc(-n3cnn(C(C)C)c3=O)cc2)CC1` (centres unmarked) [Compound 327], for which the IC50 is 316 to 3160 nM.
For `CC(C)n1ncn(-c2ccc(N3CCN(C(C(=O)Nc4ccc(F)cc4)c4ccccc4)CC3)cc2)c1=O` (centres unmarked) [Compound 186], the IC50 was 31.6 to 316 nM.
For `CCOC(=O)C(c1ccccc1)N1CCN(c2ccc(-n3ccn(C(C)c4cccc(F)c4F)c3=O)cc2)CC1` (centres unmarked) [Compound 332], the IC50 was 31.6 to 316 nM.
Turning to `CC(C)CNC(=O)C(c1ccccc1)N1CCN(c2ccc(-n3cnn(C(C)C)c3=O)cn2)CC1` (centres unmarked) [Compound 43], the IC50 is 316 to 3160 nM.
Consider `COC(=O)c1ccc(CNC(=O)C(c2ccccc2)N2CCN(c3ccc(-n4cnn(C(C)c5ccccc5)c4=O)cc3)CC2)cc1C` (centres unmarked) [Compound 287], for which the IC50 is 316 to 3160 nM.
In the case of `CCOC(=O)[C@@H](c1ccccc1)N1CCN(c2ccc(-n3ccn([C@H](C)c4ccc(F)cc4)c3=O)cc2)CC1` (relative stereo) [Compound 273], the IC50 is 316 to 3160 nM.
For `CCCCCNC(=O)C(c1ccccc1)N1CCN(c2ccc(-n3c(C)nn(C(C)C)c3=O)cc2)CC1` (centres unmarked) [Compound 111], the IC50 was 316 to 3160 nM.
As for `CCCCNC(=O)C(c1ccccc1)N1CCN(c2ccc(-n3ncn(C(C)C)c3=O)cc2)CC1` (centres unmarked) [Compound 118], the IC50 was 316 to 3160 nM.
Take `CCNC(=O)C(c1ccccc1)N1CCN(c2ccc(-n3c(-c4ccccc4)nn(C(C)C)c3=O)cc2)CC1` (centres unmarked) [Compound 31]: the IC50 was 316 to 3160 nM.
With `CCC(C)n1ncn(-c2ccc(N3CCN(C(C(=O)OC)c4ccccc4)CC3)cc2)c1=O` (centres unmarked) [Compound 174] the figure was 31.6 to 316 nM; with `CC(C)n1ncn(-c2ccc(N3CCN(C(C(=O)NC4Cc5ccccc5C4)c4ccccc4)CC3)cc2)c1=O` (centres unmarked) [Compound 69], 31.6 to 316 nM.
